Results on nine molecules are retold here after article PMC10177516, “Design and Biological Evaluation of Small-Molecule PET-Tracers for Imaging of Programmed Death Ligand 1” (Cancers, 2023).

Broadly, the logD is the decadic logarithm of the distribution of all forms, ionised or not, between an organic phase and buffer at a given pH. Usually IC50 stands for the midpoint of a concentration-inhibition curve.

Read-outs that look alike come from different tables or passages of the source.

Data set [1] is described as follows: log D7.4 determination, shake-flask n-octanol/PBS. Type of data set: physicochemical. The conditions noted are these: ^64Cu-labeled, n-octanol/PBS pH 7.4, mean ± SD, n=3. The protocol:
n-Octanol/water distribution coefficients (log D7.4) were determined using the shake-flask method and performed in triplicate. Twenty µL of the reaction mixture was added to a 1.5 mL Eppendorf Tube containing 580 µL of 1× PBS (pH 7.4) and 600 µL n-octanol. The two-phase system was shaken at room temperature with 1500 rpm for 5 min. After centrifugation, an aliquot of each phase was withdrawn, and the count rates were measured in a γ-counter (ISOMED2160 sodium iodide crystal detector). The average was calculated, corrected for background activity, and the log D7.4 value was calculated according to the formula: logD7.4=logAn−octanol/APBS .

Data set [2] is described as follows: Proteolytic stability in human serum, radio-HPLC. Type of data set: in vitro ADME. Conditions: ^177Lu-labeled, throughout the study (up to seven days). Here is the method:
The corresponding radiotracer was labeled with approx. 50 MBq of ^177Lu in 200 µL HEPES solution (pH 4) as described above. After successful labeling, the reaction mixture was diluted 1:10 with human serum. The solution was incubated at 37 °C with shaking at 500 rpm. After 1 h, 24 h, 48 h, 72 h, and 7 d, a 1 µL aliquot was analyzed by radio-TLC as described above. Evaluation and graphical plotting were performed with OriginPro® 9.0.
For investigation by radio-HPLC, a chloroform–methanol precipitation was carried out at each time point. An aliquot (100 µL) of the serum-containing incubation reaction was mixed with 400 µL of MeOH. Then, 100 µL of chloroform were added and the sample was vortexed well. For phase separation, 300 µL of ultrapure water were added, and the sample was vortexed vigorously and centrifuged for 2 min at 14,000× g. The upper, aqueous layer was carefully removed and collected. To the lower chloroform phase and the interphase containing the precipitated proteins, 400 µL of MeOH was added. The sample was mixed and centrifuged again for 3 min at 14,000× g to pellet the proteins. […] Afterward, the clear supernatant was analyzed by radio-HPLC (system E). The peak areas were normalized by measuring the activity with the gamma counter (HIDEX Deutschland Vertrieb GmbH, Mainz, Germany) at the corresponding time point. Evaluation and graphical plotting were performed with OriginPro® 9.0.

In data set [3] the test system is PC3 PD-L1 and PC3 mock tumors. Nature of the data set: Small animal PET/CT in tumor-bearing mice. The data set is classed as in vivo, NMRI-nude mice. The conditions noted are these: blocking with 100 nmol of the respective unlabeled compound; PET. The protocol:
Male athymic NMRI-nude mice (Rj:NMRI-Foxn1nu, Janvier Labs, Le Genest-Saint-Isle, France) between 8 and 22 weeks of age were used. Under general anesthesia, [~10% desflurane (Baxter, Deerfield, IL, USA) in 30 vol% oxygen + air] and warming, animals were subcutaneously injected with 3–5 × 10^6 PC3 PD-L1 and PC3 mock cells [in 50 µL PBS + 50 µL Matrigel (Corning, Glendale, CA, USA)] into the right and left thigh, respectively. Tumor growth was monitored three times a week by caliper measurements and mice with tumor sizes above 7 mm were included in the experiments.
For PET studies, general anesthesia was induced as described above. PET and X-ray computed tomography (CT) were performed in a dedicated small animal nanoScan PET/CT scanner, with 4 animals imaged simultaneously (Mediso, Budapest, Hungary). CT images were employed for attenuation correction and anatomical referencing. Animals received three individual scans corresponding to 0–2 h (dynamic), 4.5 h, and 24 h (static) post injection. […]
Three-dimensional volumes of interest were delineated applying fixed thresholding at 35% of the measured maximum intensity. Standardized uptake values (SUV = [MBq detected activity/mL tissue]/[MBq injected activity/g body weight], […]) were determined in selected volumes of interest, among these PD-L1 and mock tumors and metabolizing organs.

In the next data set the test system is human serum proteins. Nature of the data set: Serum protein binding, size-exclusion chromatography. Type of data set: in vitro ADME. The conditions noted are these: ^177Lu-labeled; human serum 37 °C; 1 h. Here is the method: The corresponding ligand was labeled with approx. 50 MBq of ^177Lu in 200 µL HEPES solution (pH 4) as described above. After successful labeling, 40 µL were mixed with 500 µL of human serum or 500 µL of 1 M HEPES solution (control), respectively. The samples were incubated at 37 °C with 500 rpm and were analyzed by size-exclusion chromatography (Jasco Germany GmbH, Pfungstadt, System F) and native discontinuous polyacrylamide gel electrophoresis (PAGE).
For size-exclusion chromatography, 20 µL aliquots were injected into system F and the obtained peak areas of serum-bound ligands and unbound ligands were used to calculate the percentage of radioligand bound to serum proteins. Evaluation and graphical plotting were performed with OriginPro® 9.0.
(In general: SEC sorts molecules by how far they enter the pores of the column.)

The target in data set [4] is T1, PD-L1 (Homo sapiens, UniProt Q9NZQ7).
T1 construct: expressed in transfected cells; host or cells: PC3 cells, lentiviral transduction (PC3-PD-L1)
Briefly: Real-time radioligand binding (LigandTracer) on PC3 PD-L1 overexpressing cells. The conditions noted are these: for kon: read-out: ka (association rate constant); for koff: read-out: kd (dissociation rate constant). Here is the method: For binding kinetics (association rate constant ka and dissociation rate constant kd) and dissociation constant (KD), a real-time assay system (LigandTracer Yellow, Ridgeview Instruments AB, Uppsala, Sweden) was employed. In this system, the petri dish containing the cells in medium (3 mL) was located on one side, while radioactivity was detected on the opposite side. The dish rotated on an inclined base, which allowed continuously measuring two or more alternating parts of the dish for bound radioligand (cells) against background (no cells). Binding was performed at room temperature (using CO2-independent medium, Gibco #18045088, ThermoFisher Germany) with or without BSA (2.5%). Association was determined through incubation with two concentrations (10 and 40 nM, 90 min each) of our ^64Cu-labeled PD-L1 small molecules, binding to PC3 PD-L1 overexpressing cells. This was followed by replacement with fresh medium and measurement of dissociation for at least 2 h. This approach provided reliable kinetic measurements as previously shown. Data were acquired in decay-corrected counts per second (CPS). Binding data were then evaluated using TraceDrawer (1.9.2, Ridgeview Instruments AB, Uppsala, Sweden). Traces were imported, potential spikes (>100% sudden increases in CPS over previous datapoint) removed, and each trace was normalized to its own baseline (=0%) and highest value (=100%). The single experiment in the presence of 2.5% BSA was processed in the same way and analyzed for the same parameters, however without replicates.

Data set [5] deals with T1, PD-L1. Briefly: Saturation binding assay (endpoint, with 2.5% BSA) on PD-L1-positive PC3 cells. Here is the method:
To determine the dissociation constant (KD) and number of binding sites (Bmax) of new PD-L1 small-molecule ligands, saturation binding was performed in at least 3 independent experiments. PC3 cells stably transduced with human PD-L1, cultured under conditions described above, were brought to room temperature followed by cooling on ice (each 15 min). The medium was removed and replaced with 200 µL assay buffer [PBS + 2.5% (w/v) bovine serum albumin (BSA; #1ETA, Carl Roth, Karlsruhe, Germany)] for total binding (TB) conditions or assay buffer containing 300 µM of 1 (in DMSO, resulting in 0.03% v/v, synthesized according to Supplementary Scheme S1) for assessment of nonspecific binding (NSB).
After 15 min preincubation for TB/NSB, 200 µL of each eight serial 1:1 dilutions (500 to 3.91 nM) of the respective radioligand were added (in triplicate). […] Radioactivity (counts per minute, CPM) of 400 µL of the lysate was measured in a gamma counter (Perkin Elmer Wizard 1480) using the nuclide-specific energy window. Additionally, we determined the binding to polystyrene in 400 µL of lysate and activity of stock solutions (50 µL). […] Protein content of the lysates (24 or 48 wells) was determined by BCA assay and a mean value (µg/mL) used for this particular dataset (plate). From CPM measurements, final values (pmol/mg protein) were calculated using mean protein content and molar activity. […]

Data set [6] concerns PD-L1. Set-up: method as in earlier work. The conditions noted are these: reported values; cited from earlier work.
The mark [7] stands for this setting: medium only (no BSA), n = 2, mean ± S.D.

T1 sequence (Q9NZQ7 19-290): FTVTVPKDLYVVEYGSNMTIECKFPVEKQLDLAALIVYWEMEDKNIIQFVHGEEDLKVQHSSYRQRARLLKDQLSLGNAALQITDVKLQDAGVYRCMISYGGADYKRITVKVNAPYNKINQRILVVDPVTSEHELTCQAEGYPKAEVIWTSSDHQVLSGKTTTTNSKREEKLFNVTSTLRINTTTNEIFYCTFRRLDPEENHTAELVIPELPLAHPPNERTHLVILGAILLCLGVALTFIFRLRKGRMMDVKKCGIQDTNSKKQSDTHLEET

In data set [1], `CN(CC(=O)NCC(S(=O)(=O)O)S(=O)(=O)O)Cc1cc(Cl)c(OCc2cccc(-c3cccc(OCc4cn(CCCC5CCN(C(=O)CN6CCN(CC(=O)O)CCN(CC(=O)O)CCN(CC(=O)O)CC6)CC5)nn4)c3)c2Br)cc1OCc1cncc(S(C)(=O)=O)c1` [42a] showed a logD of -2.73.
`CN(CC(=O)NCC(S(=O)(=O)O)S(=O)(=O)O)Cc1cc(Cl)c(OCc2cccc(-c3cccc(OCc4cn(CCOCCOCCN5CCN(C(=O)CN6CCN(CC(=O)O)CCN(CC(=O)O)CCN(CC(=O)O)CC6)CC5)nn4)c3)c2Br)cc1OCc1cncc(S(C)(=O)=O)c1` [42c]: the intact radiotracer in data set [2] was above 90%.
Regarding `Cc1c(COc2cc(OCc3cncc(S(C)(=O)=O)c3)c(CN(C)CC(=O)NCC(S(=O)(=O)O)S(=O)(=O)O)cc2Cl)cccc1-c1cccc(OCc2cn(CCCN3CCN(C(=O)CN4CCN(CC(=O)O)CCN(CC(=O)O)CCN(CC(=O)O)CC4)CC3)nn2)c1C` [43b], the blocking effect entry in data set [3] is on record as “moderate blocking effect”.
Molecule `Cc1c(COc2cc(OCc3cncc(S(C)(=O)=O)c3)c(CN(C)CC(=O)NCC(S(=O)(=O)O)S(=O)(=O)O)cc2Cl)cccc1-c1cccc(OCc2cn(CCOCCOCCN3CCN(C(=O)CN4CCN(CC(=O)O)CCN(CC(=O)O)CCN(CC(=O)O)CC4)CC3)nn2)c1C` [43c] had an intact radiotracer in data set [2] above 90%. Moreover, the logD in data set [1] is -3.5.
`Cc1c(COc2cc(OCc3cncc(C#N)c3)c(CN(C)CC(=O)NCC(S(=O)(=O)O)S(=O)(=O)O)cc2Cl)cccc1-c1cccc(OCc2cn(CCCN3CCN(C(=O)CN4CCN(CC(=O)O)CCN(CC(=O)O)CCN(CC(=O)O)CC4)CC3)nn2)c1C` [56a] yielded an intact radiotracer in data set [2] above 90%. For the same molecule, the “bound to human serum proteins (mean ± SD)” value with human serum proteins was 95.7%.
Taken in the same sequence, the figures for `Cc1c(COc2cc(OCc3cncc(C#N)c3)c(CN(C)CC(=O)NCC(S(=O)(=O)O)S(=O)(=O)O)cc2Br)cccc1-c1cccc(OCc2cn(CCCN3CCN(C(=O)CN4CCN(CC(=O)O)CCN(CC(=O)O)CCN(CC(=O)O)CC4)CC3)nn2)c1C` [56b] were above 90% and 94.6%.
On to `Cc1c(COc2cc(OCc3cncc(C#N)c3)c(CN(C)CC(=O)NCC(S(=O)(=O)O)S(=O)(=O)O)cc2I)cccc1-c1cccc(OCc2cn(CCCN3CCN(C(=O)CN4CCN(CC(=O)O)CCN(CC(=O)O)CCN(CC(=O)O)CC4)CC3)nn2)c1C` [56c], for which the “bound to human serum proteins (mean ± SD)” value in the data set on human serum proteins turned out to be 97.6%.
As to `CCCC[C@H]1C(=O)N(C)[C@@H](CCCC)C(=O)N[C@@H](CCCNC(=O)CCC(C(=O)O)N2CCN(CC(=O)O)CCN(CC(=O)O)CCN(CC(=O)O)CC2)C(=O)N[C@H](C(=O)NCC(N)=O)CSCC(=O)N[C@@H](Cc2ccc(O)cc2)C(=O)N(C)[C@@H](C)C(=O)N[C@@H](CC(N)=O)C(=O)N2CCC[C@H]2C(=O)N[C@@H](Cc2c[nH]cn2)C(=O)N[C@@H](CC(C)C)C(=O)N2C[C@H](O)C[C@H]2C(=O)N[C@@H](Cc2c[nH]c3ccccc23)C(=O)N[C@@H](CO)C(=O)N[C@@H](Cc2cn(C)c3ccccc23)C(=O)N1C` (stereo partly drawn) [[^64Cu]Cu-DOTAGA-WL12, metal not drawn], on PD-L1 [4] (medium + 2.5% BSA, n = 1), the kon stood at 7460 M⁻¹ s⁻¹ and the koff stood at 6.74e-06 s⁻¹. On PD-L1 [4] (setting [7]), the kon stood at 12200 M⁻¹ s⁻¹ and the koff amounted to 9.77e-06 s⁻¹. Also, the “Bmax (maximum number of binding sites)” value at PD-L1 [5] (^64Cu complexes, saturation binding with 2.5% BSA, PD-L1-positive PC3 cells) was 56.7 ± 3.87 pmol/mg. In addition, the “affinity, times worse than previously reported using SPR” value on PD-L1 [5] (saturation KD versus SPR value of ref 68) is reported as “approximately 15 times”. In addition, the logD in data set [1] was -2.57 ± 0.02.
On to `Cc1c(COc2cc(OCc3cncc(C#N)c3)c(CN(C)C(CO)(CO)CO)cc2Cl)cccc1-c1cccc(OCCCN2CCC(F)(F)C2)c1C` [compound 3], for which the IC50 in the data set on PD-L1 [6] was 0.5 nM.
